Measured values published in PubChem BioAssay (NCI).
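Results reflect a 48-hour exposure of cells in 96-well plates to compound at five concentrations. The concentration for 50% growth inhibition is given as GI50. Definition used: TGI = concentration required for complete inhibition of growth.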

What was measured:
Assay in all cases: NCI tumour cell line growth inhibition, 48 h
BT-549 breast = system: BT-549 breast
ACHN renal = system: ACHN renal
HCT-15 colon = system: HCT-15 colon
HCC-2998 colon = system: HCC-2998 colon
COLO 205 colon = system: COLO 205 colon
A498 renal = system: A498 renal
HL-60(TB) leukemia = system: HL-60(TB) leukemia
DU-145 prostate = system: DU-145 prostate
K-562 leukemia = system: K-562 leukemia
SNB-19 CNS = system: SNB-19 CNS
A549 NSCLC = system: A549 NSCLC
LOX IMVI melanoma = system: LOX IMVI melanoma
SK-MEL-28 melanoma = system: SK-MEL-28 melanoma
SF-539 CNS = system: SF-539 CNS
SF-268 CNS = system: SF-268 CNS
NCI-H23 lung = system: NCI-H23 lung
SK-MEL-5 melanoma = system: SK-MEL-5 melanoma
HS 578T breast = system: HS 578T breast
HOP-92 NSCLC = system: HOP-92 NSCLC
HCT-116 colon = system: HCT-116 colon
CAKI-1 renal = system: CAKI-1 renal
MDA-MB-231 breast = system: MDA-MB-231 breast
SK-OV-3 ovarian = system: SK-OV-3 ovarian
786-0 renal = system: 786-0 renal
SR leukemia = system: SR leukemia
UACC-62 melanoma = system: UACC-62 melanoma
SNB-75 CNS = system: SNB-75 CNS
KM12 colon = system: KM12 colon

COc1cc2nc3sc(C(=O)Nc4ccc(C(=O)OC(C)C)cc4)c(C(=O)Nc4ccc(Cl)cc4C)n3c(=O)c2cc1OC
GI50 (BT-549 breast): 1.67 µM
TGI (BT-549 breast): 20 µM
GI50 (ACHN renal): 23.8 µM
TGI (ACHN renal): > 100 µM
GI50 (HCT-15 colon): 17.3 µM
TGI (HCT-15 colon): > 100 µM
GI50 (HCC-2998 colon): 9.5 µM
TGI (HCC-2998 colon): > 100 µM
GI50 (COLO 205 colon): 7.02 µM
TGI (COLO 205 colon): 51.9 µM
GI50 (A498 renal): 4.69 µM
TGI (A498 renal): 26.3 µM
GI50 (HL-60(TB) leukemia): 7.59 µM
TGI (HL-60(TB) leukemia): 35.2 µM
GI50 (DU-145 prostate): 1.25 µM
TGI (DU-145 prostate): 11.4 µM
GI50 (K-562 leukemia): 5.29 µM
TGI (K-562 leukemia): > 100 µM
GI50 (SNB-19 CNS): 28 µM
TGI (SNB-19 CNS): 95.3 µM
GI50 (A549 NSCLC): 0.824 µM
TGI (A549 NSCLC): > 100 µM
GI50 (LOX IMVI melanoma): 11.1 µM
TGI (LOX IMVI melanoma): 34.4 µM
GI50 (SK-MEL-28 melanoma): 46.2 µM
TGI (SK-MEL-28 melanoma): > 100 µM
GI50 (SF-539 CNS): 23.2 µM
TGI (SF-539 CNS): 80.8 µM
GI50 (SF-268 CNS): 9.45 µM
TGI (SF-268 CNS): 43.3 µM
GI50 (NCI-H23 lung): 13.6 µM
TGI (NCI-H23 lung): 40.5 µM
GI50 (SK-MEL-5 melanoma): 6.08 µM
TGI (SK-MEL-5 melanoma): > 100 µM
GI50 (HS 578T breast): 1.6 µM
TGI (HS 578T breast): 7.7 µM
GI50 (HOP-92 NSCLC): 10.7 µM
TGI (HOP-92 NSCLC): 30.6 µM
GI50 (HCT-116 colon): 11.3 µM
TGI (HCT-116 colon): > 100 µM
GI50 (CAKI-1 renal): 26.1 µM
TGI (CAKI-1 renal): > 100 µM
GI50 (MDA-MB-231 breast): 11.2 µM
TGI (MDA-MB-231 breast): 38.4 µM
GI50 (SK-OV-3 ovarian): 23.3 µM
TGI (SK-OV-3 ovarian): 70 µM
GI50 (786-0 renal): 5.17 µM
TGI (786-0 renal): 28 µM
GI50 (SR leukemia): 3.05 µM
TGI (SR leukemia): 14.1 µM
GI50 (UACC-62 melanoma): 6.8 µM
TGI (UACC-62 melanoma): 91.8 µM
GI50 (SNB-75 CNS): 10.2 µM
TGI (SNB-75 CNS): 27.8 µM
GI50 (KM12 colon): 1.29 µM
